Measurements from the NIST ThermoML archive (doi:10.1016/j.jct.2012.06.012).
Numbers after ± are expanded uncertainties.

Assay: xn = mol fraction of the nth substance listed
Conditions: Liquid, Vibrating tube method

Compound CCCCCCCCCC [decane] + CCO has a mass density (352.7 K, 1000 kPa, x2 = 0.1011) of 683.33 ± 0.23 kg/m3, a mass density (352.7 K, 2000 kPa, x2 = 0.1011) of 684.45 ± 0.25 kg/m3 and a mass density (352.7 K, 3000 kPa, x2 = 0.1011) of 685.55 ± 0.26 kg/m3. It also gave a mass density (352.7 K, 4000 kPa, x2 = 0.1011) of 686.65 ± 0.27 kg/m3, a mass density (352.7 K, 5000 kPa, x2 = 0.1011) of 687.72 ± 0.29 kg/m3 and a mass density (352.7 K, 6000 kPa, x2 = 0.1011) of 688.78 ± 0.3 kg/m3. It also gave a mass density (352.7 K, 7000 kPa, x2 = 0.1011) of 689.84 ± 0.32 kg/m3, a mass density (352.7 K, 8000 kPa, x2 = 0.1011) of 690.9 ± 0.33 kg/m3 and a mass density (352.7 K, 9000 kPa, x2 = 0.1011) of 691.94 ± 0.35 kg/m3. The mass density (352.7 K, 10000 kPa, x2 = 0.1011) was 692.96 ± 0.36 kg/m3, the mass density (352.7 K, 11000 kPa, x2 = 0.1011) was 693.98 ± 0.37 kg/m3 and the mass density (352.7 K, 12000 kPa, x2 = 0.1011) was 695 ± 0.39 kg/m3. The mass density (352.7 K, 13000 kPa, x2 = 0.1011) was 695.99 ± 0.4 kg/m3, the mass density (352.7 K, 14000 kPa, x2 = 0.1011) was 696.97 ± 0.42 kg/m3 and the mass density (352.7 K, 15000 kPa, x2 = 0.1011) was 697.93 ± 0.43 kg/m3. It also gave a mass density (352.7 K, 16000 kPa, x2 = 0.1011) of 698.88 ± 0.44 kg/m3, a mass density (352.7 K, 17000 kPa, x2 = 0.1011) of 699.83 ± 0.46 kg/m3 and a mass density (352.7 K, 18000 kPa, x2 = 0.1011) of 700.74 ± 0.47 kg/m3. For the same compound, the mass density (352.7 K, 19000 kPa, x2 = 0.1011) was 701.63 ± 0.49 kg/m3, the mass density (352.7 K, 20000 kPa, x2 = 0.1011) was 702.51 ± 0.5 kg/m3 and the mass density (352.76 K, 1000 kPa, x2 = 0.7526) was 702.43 ± 0.22 kg/m3. It also gave a mass density (352.76 K, 2000 kPa, x2 = 0.7526) of 703.63 ± 0.23 kg/m3, a mass density (352.76 K, 3000 kPa, x2 = 0.7526) of 704.82 ± 0.25 kg/m3 and a mass density (352.76 K, 4000 kPa, x2 = 0.7526) of 706.01 ± 0.26 kg/m3. For the same compound, the mass density (352.76 K, 5000 kPa, x2 = 0.7526) was 707.19 ± 0.27 kg/m3, the mass density (352.76 K, 6000 kPa, x2 = 0.7526) was 708.35 ± 0.29 kg/m3 and the mass density (352.76 K, 7000 kPa, x2 = 0.7526) was 709.51 ± 0.3 kg/m3. For the same compound, the mass density (352.76 K, 8000 kPa, x2 = 0.7526) was 710.66 ± 0.31 kg/m3, the mass density (352.76 K, 9000 kPa, x2 = 0.7526) was 711.8 ± 0.33 kg/m3 and the mass density (352.76 K, 10000 kPa, x2 = 0.7526) was 712.92 ± 0.34 kg/m3. It also gave a mass density (352.76 K, 11000 kPa, x2 = 0.7526) of 714.03 ± 0.35 kg/m3, a mass density (352.76 K, 12000 kPa, x2 = 0.7526) of 715.12 ± 0.36 kg/m3 and a mass density (352.76 K, 13000 kPa, x2 = 0.7526) of 716.21 ± 0.38 kg/m3. The mass density (352.76 K, 14000 kPa, x2 = 0.7526) was 717.27 ± 0.39 kg/m3, the mass density (352.76 K, 15000 kPa, x2 = 0.7526) was 718.31 ± 0.4 kg/m3 and the mass density (352.76 K, 16000 kPa, x2 = 0.7526) was 719.35 ± 0.42 kg/m3. For the same compound, the mass density (352.76 K, 17000 kPa, x2 = 0.7526) was 720.36 ± 0.43 kg/m3, the mass density (352.76 K, 18000 kPa, x2 = 0.7526) was 721.35 ± 0.44 kg/m3 and the mass density (352.76 K, 19000 kPa, x2 = 0.7526) was 722.32 ± 0.45 kg/m3. The mass density (352.76 K, 20000 kPa, x2 = 0.7526) was 723.29 ± 0.47 kg/m3, the mass density (352.85 K, 1000 kPa, x2 = 0.2507) was 684.78 ± 0.23 kg/m3 and the mass density (352.85 K, 2000 kPa, x2 = 0.2507) was 685.92 ± 0.24 kg/m3. It also gave a mass density (352.85 K, 3000 kPa, x2 = 0.2507) of 687.03 ± 0.26 kg/m3, a mass density (352.85 K, 4000 kPa, x2 = 0.2507) of 688.14 ± 0.27 kg/m3 and a mass density (352.85 K, 5000 kPa, x2 = 0.2507) of 689.24 ± 0.29 kg/m3. The mass density (352.85 K, 6000 kPa, x2 = 0.2507) was 690.33 ± 0.3 kg/m3, the mass density (352.85 K, 7000 kPa, x2 = 0.2507) was 691.41 ± 0.32 kg/m3 and the mass density (352.85 K, 8000 kPa, x2 = 0.2507) was 692.48 ± 0.33 kg/m3. The mass density (352.85 K, 9000 kPa, x2 = 0.2507) was 693.55 ± 0.34 kg/m3, the mass density (352.85 K, 10000 kPa, x2 = 0.2507) was 694.61 ± 0.36 kg/m3 and the mass density (352.85 K, 11000 kPa, x2 = 0.2507) was 695.65 ± 0.37 kg/m3. It also gave a mass density (352.85 K, 12000 kPa, x2 = 0.2507) of 696.68 ± 0.39 kg/m3, a mass density (352.85 K, 13000 kPa, x2 = 0.2507) of 697.7 ± 0.4 kg/m3 and a mass density (352.85 K, 14000 kPa, x2 = 0.2507) of 698.7 ± 0.41 kg/m3. For the same compound, the mass density (352.85 K, 15000 kPa, x2 = 0.2507) was 699.68 ± 0.43 kg/m3, the mass density (352.85 K, 16000 kPa, x2 = 0.2507) was 700.65 ± 0.44 kg/m3 and the mass density (352.85 K, 17000 kPa, x2 = 0.2507) was 701.61 ± 0.45 kg/m3. The mass density (352.85 K, 18000 kPa, x2 = 0.2507) was 702.54 ± 0.47 kg/m3, the mass density (352.85 K, 19000 kPa, x2 = 0.2507) was 703.46 ± 0.48 kg/m3 and the mass density (352.85 K, 20000 kPa, x2 = 0.2507) was 704.34 ± 0.5 kg/m3. The mass density (362.64 K, 1000 kPa, x2 = 0.1011) was 675.19 ± 0.23 kg/m3, the mass density (362.64 K, 1000 kPa, x2 = 0.4963) was 680.64 ± 0.23 kg/m3 and the mass density (362.64 K, 1000 kPa, x2 = 0.9014) was 707.28 ± 0.22 kg/m3. It also gave a mass density (362.64 K, 2000 kPa, x2 = 0.1011) of 676.37 ± 0.25 kg/m3, a mass density (362.64 K, 2000 kPa, x2 = 0.4963) of 681.93 ± 0.24 kg/m3 and a mass density (362.64 K, 2000 kPa, x2 = 0.9014) of 708.6 ± 0.23 kg/m3. It also gave a mass density (362.64 K, 3000 kPa, x2 = 0.1011) of 677.53 ± 0.26 kg/m3, a mass density (362.64 K, 3000 kPa, x2 = 0.4963) of 683.18 ± 0.26 kg/m3 and a mass density (362.64 K, 3000 kPa, x2 = 0.9014) of 709.92 ± 0.24 kg/m3. It also gave a mass density (362.64 K, 4000 kPa, x2 = 0.1011) of 678.69 ± 0.28 kg/m3, a mass density (362.64 K, 4000 kPa, x2 = 0.4963) of 684.42 ± 0.27 kg/m3 and a mass density (362.64 K, 4000 kPa, x2 = 0.9014) of 711.21 ± 0.26 kg/m3. The mass density (362.64 K, 5000 kPa, x2 = 0.1011) was 679.84 ± 0.29 kg/m3, the mass density (362.64 K, 5000 kPa, x2 = 0.4963) was 685.66 ± 0.29 kg/m3 and the mass density (362.64 K, 5000 kPa, x2 = 0.9014) was 712.52 ± 0.27 kg/m3. The mass density (362.64 K, 6000 kPa, x2 = 0.1011) was 680.98 ± 0.31 kg/m3, the mass density (362.64 K, 6000 kPa, x2 = 0.4963) was 686.87 ± 0.3 kg/m3 and the mass density (362.64 K, 6000 kPa, x2 = 0.9014) was 713.8 ± 0.28 kg/m3. It also gave a mass density (362.64 K, 7000 kPa, x2 = 0.1011) of 682.11 ± 0.32 kg/m3, a mass density (362.64 K, 7000 kPa, x2 = 0.4963) of 688.09 ± 0.32 kg/m3 and a mass density (362.64 K, 7000 kPa, x2 = 0.9014) of 715.07 ± 0.29 kg/m3. It also gave a mass density (362.64 K, 8000 kPa, x2 = 0.1011) of 683.24 ± 0.34 kg/m3, a mass density (362.64 K, 8000 kPa, x2 = 0.4963) of 689.28 ± 0.33 kg/m3 and a mass density (362.64 K, 8000 kPa, x2 = 0.9014) of 716.3 ± 0.31 kg/m3. For the same compound, the mass density (362.64 K, 9000 kPa, x2 = 0.1011) was 684.33 ± 0.35 kg/m3, the mass density (362.64 K, 9000 kPa, x2 = 0.4963) was 690.44 ± 0.35 kg/m3 and the mass density (362.64 K, 9000 kPa, x2 = 0.9014) was 717.55 ± 0.32 kg/m3. The mass density (362.64 K, 10000 kPa, x2 = 0.1011) was 685.43 ± 0.37 kg/m3, the mass density (362.64 K, 10000 kPa, x2 = 0.4963) was 691.61 ± 0.36 kg/m3 and the mass density (362.64 K, 10000 kPa, x2 = 0.9014) was 718.74 ± 0.33 kg/m3.
